The values below are quoted from earlier work in patent US7183392B2, “Site-specific, covalent bioconjugation of proteins” (Zyomyx, Inc., priority 2000, dated 2007).

Data set [1] has as its target Helix A / Helix B parallel heterodimer. To be noted: parallel heterodimer of Helix A with Helix B; read-out: dissociation constant.
The conditions of data set [2]: aqueous and polar environments.
Data set [3] concerns the target RNA aptamer. The note with it: 11 amino acid sequence, known RNA aptamer.

Take “EYQALEKEVAQLEAENNALEKEVAQLEHEG [Helix A]”: the Kd in data set [1] is about 6 nM. Besides, in data set [2], the solubility result was “very soluble”. Take “EYQALKKKVAQLKAKNNALKKKVAQLKHKG [Helix B]”: in data set [1], the Kd is about 6 nM. Further, the solubility result in data set [2] is reported as “very soluble”. With “substance P: 11 amino acid long peptide sequence that binds a known RNA aptamer”, the Kd in data set [3] was about 190 nM.
